From patent US20230323432A1, “ASSAY FOR DETECTING POINT MUTATIONS” (Bakotic Pathology Associates, LLC, priority 2022, published 2023)

Columns and labels:
[1] = test system: T rubrum (ATCC-22402); assay: Terbinafine susceptibility testing of isolates by culture on terbinafine-containing agar (CLSI M38-A3); conditions: wild type strain ATCC-22402
Method: (§1) The isolates are re-tested for terbinafine drug resistance by plating the isolates on the sabouraud dextrose agar (SDA)/Potato dextrose agar (PDA) plates containing different concentration of terbinafine. Reagent-grade terbinafine (TRB) were obtained in the powder form (Sigma-Aldrich, Missouri, USA). Drug stock solutions were prepared in dimethyl sulfoxide (DMSO). The dermatophyte isolates were cultured on SDA/PDA for 21-30 days. In vitro testing of the susceptibility to Terbinafine allylamine was performed according to the Clinical and Laboratory Standards Institute (CLSI) document M38-A3 (CLSI, 2018). The drugs were analyzed at the final concentration in the range of 0.002-32 μg/ml for TRB.
(§2) Wild type strains for T rubrum (ATCC-22402) and T mentagrophytes (ATCC-28146) are obtained from ATCC.

[2] = test system: T mentagrophytes (ATCC-28146); assay: as above; conditions: wild type strain ATCC-28146
Method: as §1, §2

CN(C/C=C/C#CC(C)(C)C)Cc1cccc2ccccc12 [terbinafine]
terbinafine susceptibility by culture [1]: susceptible
terbinafine susceptibility by culture [2]: susceptible
